In patent US4073941A, “Aralkyl amides having antidepressive activity” (priority 1975, dated 1978) one finds IC50, ED50 and minimal effective dose data, which are given here for two molecules.

The test system of experiment [1] is uptake of 14C-5-HT (5-hydroxytryptamine) in brain slices. Description: Inhibition of the uptake of 14C-5-HT in mouse midbrain slices, compound added in vitro. Type of experiment: cell-based, mice. As to conditions: 5 min, concentration producing 50 percent decrease of active uptake (ED50), 5-HT 1×10^-7 M, 5 min incubation. The method, then: (§1) 1. Inhibition of the uptake of carbon-14 5-HT and tritiated noradrenaline in vitro and in vivo
(§2) The method is described by Ross, Renyi and Ogren in European Journal of Pharmacology 17 (1972), 107-112. Tricyclic antidepressant drugs of type imipramine added in vitro or given in vivo to mice decrease the uptake of ^14 C-5-HT and ^3 H-NA in vitro. In the in vitro experiments different concentrations of the test compound were added to the incubation medium. In the in vivo experiments different doses of the test drug were administered intraperitoneally half an hour before the animals were killed. The incubation performance was the same in the two types of experiments, i.e. the midbrain was taken out and sliced and incubated in a mixture consisting of, per 100 mg of brain slices, 0.2 n-mole of ^14 C-5-HT, 0.2 n-mole of ^3 H-NA and 11 μmole of glucose in 2 ml of Krebs-Henseleit buffer, pH 7.4. The incubation time was 5 minutes. The radioactive amines taken up in the slices were dissolved in Soluene-350® (Packard) and the amounts were determined with the double labelling technique by liquid scintillation. The concentration or dose producing 50 percent decrease of the active uptake (ED50) was determined graphically from dose-response curves. Active uptake is defined as that part of the radioactive uptake which is inhibited by a high concentration of cocaine. […]

The subject of experiment [2] is uptake of 3H-NA (noradrenaline) in brain slices. Briefly: Inhibition of the uptake of 3H-noradrenaline in mouse midbrain slices, compound added in vitro. The format is cell-based, mice. As to conditions: 5 min, read-out: Inhibition (50 %) of uptake in vitro NA. As to the method:
as §1, §2

Experiment [3] has as its system uptake of 14C-5-HT (5-hydroxytryptamine) in brain slices. Briefly: Inhibition of the uptake of 14C-5-HT in midbrain slices after in vivo i.p. administration to mice. As to conditions: Mus musculus, ip, 0.5 h; dose producing 50 percent decrease of active uptake (ED50); i.p. half an hour before killing; 5-HT 1×10^-7 M. As to the method: as §1
(§3) The method is described by Ross, Renyi and Ogren in European Journal of Pharmacology 17 (1972), 107-112. […] In the in vitro experiments different concentrations of the test compound were added to the incubation medium. In the in vivo experiments different doses of the test drug were administered intraperitoneally half an hour before the animals were killed. The incubation performance was the same in the two types of experiments, i.e. the midbrain was taken out and sliced and incubated in a mixture consisting of, per 100 mg of brain slices, 0.2 n-mole of ^14 C-5-HT, 0.2 n-mole of ^3 H-NA and 11 μmole of glucose in 2 ml of Krebs-Henseleit buffer, pH 7.4. The incubation time was 5 minutes. The radioactive amines taken up in the slices were dissolved in Soluene-350® (Packard) and the amounts were determined with the double labelling technique by liquid scintillation. The concentration or dose producing 50 percent decrease of the active uptake (ED50) was determined graphically from dose-response curves. Active uptake is defined as that part of the radioactive uptake which is inhibited by a high concentration of cocaine. All doses were given at least to four animals.

For experiment [4], the system named is uptake of 3H-NA (noradrenaline) in brain slices. Briefly: Inhibition of the uptake of 3H-noradrenaline in midbrain slices after in vivo i.p. administration to mice. As to conditions: Mus musculus, ip, 0.5 h; dose producing 50 percent decrease of active uptake (ED50); i.p. half an hour before killing; 1-noradrenaline 1×10^-7 M. As to the method:
as §1, §3

In experiment [5] the test system is 5-HTP induced behavioural syndrome in mice. Briefly: 5-HTP response potentiation test. Type of experiment: in vivo. As to conditions: Mus musculus, least dose producing maximal score (+3) in all animals, before dl-5-HTP 90 mg/kg i.v. The method, then:
1. 5-HTP response potentiation test
Inhibition of the uptake of 5-HT potentiates the effects of administered 5-hydroxytryptophan (5-HTP) probably by increasing the amount of 5-HT at the receptor. Three mice are given the test drugs 1 hour (or 4, 24 hours) before d1-5-HTP 90 mg/kg i.v. 5-HTP alone gives only a weak behavioural syndrome but in pretreated mice there is seen a characteristic behavioural syndrome, which comes within 5 minutes: tremor, lordosis, abduction of the hindlegs, head-twiches. The strength of the syndrome is scored from 0 to +3. Each group consists of 3 animals and at least 4 groups were tested at 25 mg/kg i.p. Control groups receiving imipramine (Tofranil®) are used as reference, since imipramine constantly potentiated d1-5-HTP. The least dose of the test compound producing maximal score (+3) in all animals is estimated from a logarithmic dose-response curve, and is denoted "effective dose" in the following Table.

≈ marks a conversion by molar mass, not a printed value. Structures can show the parent of a compound that is named as a salt. Where two headings read alike, the source gives them in different places.

`CC(N)C(=O)NC(C)(C)Cc1ccc(Cl)cc1` (stereo not shown) [GEA 609, 2-amino-N^1 - 3-(4-chlorophenyl)-2-methyl-2-propyl! propanoic acid amide hydrochloride]: the IC50 was 0.7 µg/mL in experiment [1] and over 10 µg/mL in experiment [2] (Mus musculus). For the same molecule, the ED50 in experiment [3] was 20 mg/kg; in experiment [4], over 40 mg/kg. Also, in experiment [5], the minimal effective dose is 0.5 mg/kg.
Turning to `CN(C)CCCN1c2ccccc2CCc2ccccc21` [Imipramine, imipramine], the IC50 stood at 0.1 µg/mL (≈ 0.357 µM) in experiment [1] and 0.06 µg/mL (≈ 0.214 µM) in experiment [2] (concentration producing 50 percent decrease of active uptake (ED50), 1-noradrenaline 1×10^-7 M, mouse midbrain slices, 5 min incubation). Moreover, the figures for the ED50 in experiment [3] and in experiment [4] were 24 mg/kg and 6 mg/kg, respectively. In addition, the minimal effective dose in experiment [5] amounted to 15 mg/kg.

The term ED50 denotes the midpoint of the dose-response relation. A higher ED50 goes with a need for a large dose. For orientation: minimal effective dose means the smallest amount tested that counted as effective.
